Experimental data as given in patent publication US20250072441A1, “METHOD FOR PREPARING A COMESTIBLE NUTRIENT COMPOSITION AND USE THEREOF” (The Cultivated B. GmbH, priority 2022, published 2025).
Read-outs that look alike come from different tables or passages of the source.

What was measured:
HepG2 cells [1] = settings: read-out: IC50, expected literature value reported in the manual for the Neutral Red Assay; cited from earlier work
HepG2 cells [2] = test: cells; settings: Homo sapiens, HepG2, 48 h
Description: This cellular assay quantitates the amount of ATP that can be correlated to cell viability. HepG2 cells were supplied by ATCC (HB-8065), cultured in DMEM supplemented with 10% FBS and grown in a incubator set to 37° C. and 5% CO2. For both assays, cells were seeded at 5.000 cells/well in a 96-well plate using only the 32 central wells. Due to inherent clumping of HepG2 cells, amount of cells could not be properly measured and varied between assays. Various concentrations of Doxorubicin were added 18 hours after seeding to the cells at a volume of 0.2 μL of cells using IDOT. Cells were processed after 2 days of compound addition. The CellTiter-Glo 2.0 Cell Viability Assay (G9242, Promega) was used. The solution was thawed and stored at 4° C. as recommended. Cell medium was removed, then cells were washed 2× in 100 μL PBS. After the last wash, 50 μL of PBS followed by 50 μL of CellTiter-Glo 2.0 reagent were added. The 96-well plate was mixed for 2 min on an orbital shaker and incubated at 10 min at RT. Luminescence was recorded at a microplate reader, using a integration time of 1.000 ms. For both assays, data for dose-response experiments was fitted with the equation “Log(agonist) vs response−Variable slope (four parameters)” using Prism.

HepG2 cells [3] = test: Neutral Red Assay, cell viability/cytotoxicity; assay type: cell-based; settings: Homo sapiens, 48 h, 2 days after compound addition, n=3
Description: It is a cellular assay that is based on a eurhodin dye that stains the lysosomes of viable cells. HepG2 cells were supplied by ATCC (HB-8065), cultured in DMEM supplemented with 10% FBS and grown in a incubator set to 37° C. and 5% CO2. For both assays, cells were seeded at 5.000 cells/well in a 96-well plate using only the 32 central wells. Due to inherent clumping of HepG2 cells, amount of cells could not be properly measured and varied between assays. […] Cells were processed after 2 days of compound addition. The Neutral Red Assay Kit—Cell Viability/Cytotoxicity (ab234039, Abcam) was used. All solutions of the kit were aliquoted and stored at −20° C. as recommended. […] Cell medium was removed and cells washed with 200 μL of 1× washing solution. After addition of 150 μL of 1× Neutral Red Staining Solution, cells were stained for 2 hours in the incubator. Cells were washed with 250 μL of 1× washing solution, and then air dried for approx. 10 min until no liquid was visible on the plate. Addition of 150 μL 1× solubilization solution was followed by shaking the plate for 20 min at 500 rpm and RT. The 96-well plate was then read at a microplate reader at an OD of 540 nm.

IC50 (HepG2 cells [2]): 0.116 µM
SMILES: COc1cccc2c1C(=O)c1c(O)c3c(c(O)c1C2=O)C[C@@](O)(C(=O)CO)C[C@@H]3O[C@H]1C[C@H](N)[C@H](O)[C@H](C)O1 [Doxorubicin]
IC50 (HepG2 cells [1]): 0.69 µM
IC50 (HepG2 cells [3]): 0.079 µM
